According to patent US20200270588A1, “GLUCOSYL TRANSFERASE POLYPEPTIDES AND METHODS OF USE” (Syngenta Participations AG, priority 2017, published 2020):
Several values for one entry are separate records, joined by “and”; a condition that tells them apart may be missing. Equal entries are not always repeated.

Columns and labels:
Type in all cases: biochemical
[1] = biological target: T1, SEQ ID 32, mutant bx-type glucosyl transferase (Zea mays, UniProt Q8W2B7, M283F); experiment: LC/MS glucosyl transferase assay (glucoside peak area), purified enzyme; settings: about 60 min, ~15 pmol enzyme, relative quantification only
T1 construct: 32; 9.98E+05; 1.75E+08; 8.33E+06; His tag; made in house
T1 sequence (Q8W2B7 whole entry M283F): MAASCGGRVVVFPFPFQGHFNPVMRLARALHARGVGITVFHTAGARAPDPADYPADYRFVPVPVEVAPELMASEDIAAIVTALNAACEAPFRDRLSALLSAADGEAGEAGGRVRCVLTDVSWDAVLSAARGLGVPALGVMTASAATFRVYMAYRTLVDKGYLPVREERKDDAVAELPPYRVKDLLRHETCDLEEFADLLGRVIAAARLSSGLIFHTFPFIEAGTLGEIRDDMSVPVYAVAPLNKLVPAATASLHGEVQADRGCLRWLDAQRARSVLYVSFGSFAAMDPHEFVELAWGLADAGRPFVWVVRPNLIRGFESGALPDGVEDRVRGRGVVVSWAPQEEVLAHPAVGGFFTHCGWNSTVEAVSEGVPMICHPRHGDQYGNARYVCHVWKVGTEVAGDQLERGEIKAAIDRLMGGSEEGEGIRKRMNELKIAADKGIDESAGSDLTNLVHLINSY
Method: (§1) In an alternative method for assaying the various enzymes, the test glucosyl transferase enzyme is reacted with substrates exactly as above except that the assay is stopped by adding an equal volume of acetonitrile. Alternatively 50 or 100 μl samples from assay reactions are added to 500 μl ethyl acetate to stop the reaction. In this case samples are then vortexed and 400 μl of the ethyl acetate partition removed, dried down, and resuspended in 100 μl 80:20 acetonitrile/water. The formation of product gluco side and/or disappearance of substrate test herbicide is then monitored directly by LC/MS. Samples are analyzed by LC-MS using an Agilent 1290 liquid chromatography system and Thermo Q-Exactive mass spectrometer. The chromatography is achieved on a Waters Acquity C18 BEH (50×2.1 mm) 1.7 μm particle size column, using a 6 minute gradient run of Water (0.2% formic acid) and Acetonitrile. The Q-Exactive is operated in positive ionisation electrospray mode, using Full scan-AIF mode, at 35,000 resolution, between 100-800 m/z. All analytes are identified from the full scan data to within at least 5 ppm accuracy of their predicted pseudo-molecular ion [M+H]^+ m/z value. In order to obtain quantitative data standard curves are run using herbicides and herbicide glucosides synthesized as standards. Where these synthetic glucosides were not available the LC/MS assay could only be used to provide relative data.
(§2) DNA sequences, optimized for E. coli codon usage, were cloned, expressed and the various proteins purified and assayed as described in the foregoing examples. Using the UDP assay (as described in examples 1, 3 and 6) the data obtained from the Zea mays bx8 w/t protein and its variants was noisy due to relatively high background rates in DMSO reagent blanks. The values reported in the table 15 were thus monitored by LC/MS as described in example 1.

[2] = biological target: T2, SEQ ID 36, mutant bx-type glucosyl transferase (Zea mays, UniProt Q8W2B7, M283F/S121V/S338K); experiment: as above; settings: about 60 min, ~15 pmol enzyme, relative quantification only
T2 construct: 36; 6.03E+06; 6.40E+09; 1.75E+08; His tag; made in house
T2 sequence (Q8W2B7 whole entry S121V/M283F/S338K): as the sequence (Q8W2B7 whole entry M283F) above, with S121V, S338K counted along it
Method: as §1, §2

[3] = biological target: T3, SEQ ID 34, mutant bx-type glucosyl transferase (Zea mays, UniProt Q8W2B7, V367W); experiment: as above; settings: about 60 min, ~15 pmol enzyme, relative quantification only
T3 construct: 34; 2.45E+05; 2.17E+07; 5.21E+06; His tag; made in house
T3 sequence (Q8W2B7 whole entry V367W): as the sequence (Q8W2B7 whole entry M283F) above, with F283M, V367W counted along it
Method: as §1, §2

[4] = system: wheat bx glucosyl transferase (SEQ ID NO 4); experiment: UDP-Glo glucosyl transferase assay, purified enzyme; settings: for Activity: herbicide 0.500 mM, limit of detection about 0.001
Method: (§3) Glucosyl transferase activity is assayed via measurement of acceptor substrate-dependent production of UDP from ultrapure UDP-glucose using the Promega UDP-Glo™ method and according to the manufacturer's instructions. Assays are run in 96 well microtiter plates.
(§4) Enzyme, typically at a stock concentration of ˜2 mg/ml is diluted to an appropriate concentration in 50 mM K^+ Hepes buffer at pH7.5 containing 0.5 mg/mL bovine serum albumin (BSA) and 5 ul aliquots of this diluted enzyme added to each well of a Perkin Elmer white ½ area 96 well plate. […] Assays are run for an appropriate time (usually 10 to 60 min) so that the amount of UDP formed lies within the most nearly linear part of the UDP standard curve and are stopped with the addition and mixing of 25 ul UDP-Glo™ detection reagent (prepared as described below). Plates are then incubated at room temperature for 60 minutes and then read in a luminescence plate reader (Perkin Elmer Envision 2130 Multilabel Reader). A UDP standard curve is run alongside each set of assays and reagent blank control assays run with DMSO in place of test herbicide. Typically, 300 pmol of UDP corresponds to a Relative Luminescence Unit (RLU) reading of about 1.5E7 and the response curve between 0 and 600 pmol is fitted to a polynomial function (see for example FIG. 2).
(§5) The UDP-Glo™ reagents are made up and used according to the manufacturer's instructions. Thus, Nucleotide Detection Buffer and ATP are combined to make nucleotide detection reagent (NDR) dispensed into aliquots and frozen to be freshly thawed before use.
(§6) Km and kcat values in respect of UDP-glucose are derived by carrying out experiments to measure initial rates over a suitable range of concentrations of UDP glucose out at a fixed near saturating concentration of acceptor substrate. Best fit values of kcat, Km and kcat/Km are obtained by direct fitting of the data to the Michaelis-Menten equation using Graphpad Prism™ software.
(§7) DNA sequences, optimized for E. coli codon usage, corresponding to SEQ IDs 1-15, encoding BX8 and BX9 orthologue polypeptides derived from a range of species (as depicted in FIG. 1) were synthesized by Genewiz (South Plainfield, USA) with 5′ NdeI and 3′ XhoI restriction sites. The various orthologues were synthesized with either a N-terminal 6×His purification tag or C-terminal 6×His purification tag (i.e. tried both ways to achieve best expression of activity) and cloned into the E. coli expression plasmid pET24a (Novagen) via the NdeI and XhoI restriction sites. Expression, purification and assay was as described in Example 1.
(§8) Assays were carried out as described in Example 1. Partly purified C-terminally his tagged w/t Larkspur enzyme (SEQ ID No 10 with a 6 amino acid C-terminal tag) catalyzed glucosyl transfer to herbicide V at a rate estimated to be about 0.0065/s/pmol at 1 mM herbicide V. The similarly-tagged w/t bx-like enzymes from rye (SEQ ID No 11) and from wheat (SEQ ID No 4) were also active but only at levels close to the detection limit at ˜0.0015/s/pmol. Further examples of assay results from further experiments are depicted in Table 14. All of the proteins were C-terminally his tagged versions of the sequences referenced except for the Zea mays bx8 SEQ ID NO: 2 which was N-terminally his tagged.

[5] = system: Avena bx glucosyl transferase (SEQ ID NO 8); experiment: as above; settings: herbicide 0.500 mM; limit of detection about 0.001
Method: as §3, §4, §5, §6, §7, §8

SMILES	integrated peak area of beta-glucoside product [1]	integrated peak area of beta-glucoside product [2]	integrated peak area of beta-glucoside product [3]	Activity [4] [pmol/sec/pmol enzyme]	Activity [5] [pmol/sec/pmol enzyme]	rate of glucosyl transfer ([4]; herbicide V, close to the detection limit) [s⁻¹ pmol⁻¹]
CN1CC(O)N(c2cc(C(F)(F)F)c(Cl)cn2)C1=O (stereo not drawn) [XI]	9.98E+05 and 1.08E+06	6.03E+06 and 6.40E+06	2.45E+05	0.001	0.002	
CON1C(=O)N(c2cc(C(F)(F)F)ccn2)C(O)[C@@H]1C (stereo partly drawn) [Compound VI]	1.75E+08 and 1.89E+08	6.40E+09 and 6.87E+09	2.17E+07 and 2.00E+07	0.000	0.002	
CN1CC(O)N(c2cc(C(F)(F)F)ccn2)C1=O (stereo not drawn) [Compound V]	8.33E+06 and 6.18E+06	1.75E+08 and 1.96E+08	5.21E+06 and 4.16E+06	0.001	0.002	~0.0015
Cc1cnc(N2C(=O)N(C)CC2O)cc1C(F)(F)F (stereo not drawn) [XVIII]				0.000	0.003	
